Patent US8476264B2, “N-(3-(2-amino-6,6-difluoro-4,4A,5,6,7,7A-hexahydro-cyclopenta[E][1,3]oxazin-4-yl)-phenylamides as BACE1 inhibitors” (Hoffmann-La Roche Inc., priority 2011, dated 2013)

Target: T1, BACE1 (Homo sapiens, UniProt P56817)
T1 construct: Human HEK293 cells which are stably transfected with a vector expressing a cDNA of the human APP wt gene (APP695); endogenous in cells; host or cells: HEK293 stably transfected with human APP695 wt
Experiment: Cellular Aβ-lowering assay (Aβ40 ELISA)
Format: cell-based
Conditions: HEK293 cells stably expressing human APP wt (APP695); Aβ40 in supernatant after 18-20 hrs; read-out: BACE1 cell act. Aβ40 IC50
Experimental: Cellular Aβ-Lowering Assay:
Human HEK293 cells which are stably transfected with a vector expressing a cDNA of the human APP wt gene (APP695) were used to assess the potency of the compounds in a cellular assay. The cells were seeded in 96-well microtiter plates in cell culture medium (Iscove, plus 10% (v/v) fetal bovine serum, glutamine, penicillin/streptomycin) to about 80% confluence and the compounds were added at a 10× concentration in 1/10 volume of medium without FCS containing 8% DMSO (final concentration of DMSO was kept at 0.8% v/v). After 18-20 hrs incubation at 37° C. and 5% CO2 in a humidified incubator the culture supernatant was harvested for the determination of Aβ40 concentrations. 96 well ELISA plates (e.g., Nunc MaxiSorb) were coated with monoclonal antibody which specifically recognize the C-terminal end of Aβ40 (Brockhaus et al., NeuroReport 9, 1481-1486; 1998). After blocking of non-specific binding sites with e.g. 1% BSA and washing, the culture supernatants were added in suitable dilutions together with a horseradish peroxidase-coupled Aβ detection antibody (e.g., antibody 4G8, Senetek, Maryland Heights, Mo.) and incubated for 5 to 7 hrs. Subsequently the wells of the microtiter plate were washed extensively with Tris-buffered saline containing 0.05% Tween 20 and the assay was developed with tetramethylbenzidine/H2O2 in citric acid buffer. After stopping the reaction with one volume 1 N H2SO4 the reaction was measured in an ELISA reader at 450 nm wavelength. The concentrations of Aβ in the culture supernatants were calculated from a standard curve obtained with known amounts of pure Aβ peptide.

T1 sequence (P56817 46-501): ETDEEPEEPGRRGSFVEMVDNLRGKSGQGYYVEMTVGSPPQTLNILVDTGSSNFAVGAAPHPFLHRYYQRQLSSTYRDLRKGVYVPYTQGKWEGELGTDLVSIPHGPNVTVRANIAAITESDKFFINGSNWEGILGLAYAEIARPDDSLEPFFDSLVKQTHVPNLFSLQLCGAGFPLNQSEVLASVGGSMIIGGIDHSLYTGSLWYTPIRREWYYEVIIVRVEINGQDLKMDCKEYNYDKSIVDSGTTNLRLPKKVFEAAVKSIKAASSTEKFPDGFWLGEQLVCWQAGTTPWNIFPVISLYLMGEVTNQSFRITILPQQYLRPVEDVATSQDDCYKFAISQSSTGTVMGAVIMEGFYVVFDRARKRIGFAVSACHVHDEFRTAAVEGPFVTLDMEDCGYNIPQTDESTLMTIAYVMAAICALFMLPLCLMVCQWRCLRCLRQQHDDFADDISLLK

Row | SMILES | IC50
1 | NC1=N[C@@](c2cc(NC(=O)c3cnc(OC(F)F)cn3)ccc2F)(C(F)F)[C@H]2CC(F)(F)C[C@H]2O1 [Example 41, 5-Difluoromethoxy-pyrazine-2-carboxylic acid [(S)-3-((1R,2R)-2-amino-4-difluoromethyl-6,6-difluoro-4,4a,5,6,7,7a-hexahydro-cyclopenta[e][1,3]oxazin-4-yl)-4-fluoro-phenyl]-amide] | 7 nM
2 | NC1=N[C@](CF)(c2cc(NC(=O)c3ncc(C(F)(F)F)cc3F)ccc2F)[C@H]2CC(F)(F)C[C@H]2O1 [Example 17, 3-Fluoro-5-trifluoromethyl-pyridine-2-carboxylic acid [(S)-3-((1R,2R)-2-amino-6,6-difluoro-4-fluoromethyl-4,4a,5,6,7,7a-hexahydro-cyclopenta[e][1,3]oxazin-4-yl)-4-fluoro-phenyl]-amide] | 4.1 nM
3 | NC1=N[C@](CF)(c2cc(NC(=O)c3ccc(C(F)(F)F)cn3)ccc2F)[C@H]2CC(F)(F)C[C@H]2O1 [Example 15, 5-Trifluoromethyl-pyridine-2-carboxylic acid [(S)-3-((1R,2R)-2-amino-6,6-difluoro-4-fluoromethyl-4,4a,5,6,7,7a-hexahydro-cyclopenta[e][1,3]oxazin-4-yl)-4-fluoro-phenyl]-amide] | 2.8 nM
4 | NC1=N[C@](CF)(c2cc(NC(=O)c3cnc(C(F)(F)F)cn3)ccc2F)[C@H]2CC(F)(F)C[C@H]2O1 [Example 28, 5-Trifluoromethyl-pyrazine-2-carboxylic acid [(S)-3-((1R,2R)-2-amino-6,6-difluoro-4-fluoromethyl-4,4a,5,6,7,7a-hexahydro-cyclopenta[e][1,3]oxazin-4-yl)-4-fluoro-phenyl]-amide] | 16 nM
5 | NC1=N[C@](CF)(c2cc(NC(=O)c3cnc(OCC(F)F)cn3)ccc2F)[C@H]2CC(F)(F)C[C@H]2O1 [Example 23, 5-(2,2-Difluoro-ethoxy)-pyrazine-2-carboxylic acid [(S)-3-((1R,2R)-2-amino-6,6-difluoro-4-fluoromethyl-4,4a,5,6,7,7a-hexahydro-cyclopenta[e][1,3]oxazin-4-yl)-4-fluoro-phenyl]-amide] | 7.8 nM
6 | NC1=N[C@](CF)(c2cc(NC(=O)c3ccc(OCC(F)(F)F)cn3)ccc2F)[C@H]2CC(F)(F)C[C@H]2O1 [Example 9, 5-(2,2,2-Trifluoro-ethoxy)-pyridine-2-carboxylic acid [(S)-3-((1R,2R)-2-amino-6,6-difluoro-4-fluoromethyl-4,4a,5,6,7,7a-hexahydro-cyclopenta[e][1,3]oxazin-4-yl)-4-fluoro-phenyl]-amide] | 17 nM
7 | NC1=N[C@](CF)(c2cc(NC(=O)c3ncc(C(F)(F)F)cn3)ccc2F)[C@H]2CC(F)(F)C[C@H]2O1 [Example 31, 5-Trifluoromethyl-pyrimidine-2-carboxylic acid [(S)-3-((1R,2R)-2-amino-6,6-difluoro-4-fluoromethyl-4,4a,5,6,7,7a-hexahydro-cyclopenta[e][1,3]oxazin-4-yl)-4-fluoro-phenyl]-amide] | 36 nM
8 | NC1=N[C@](CF)(c2cc(NC(=O)c3ccc(OCC(F)(F)C(F)(F)F)cn3)ccc2F)[C@H]2CC(F)(F)C[C@H]2O1 [Example 10, 5-(2,2,3,3,3-Pentafluoro-propoxy)-pyridine-2-carboxylic acid [(S)-3-((1R,2R)-2-amino-6,6-difluoro-4-fluoromethyl-4,4a,5,6,7,7a-hexahydro-cyclopenta[e][1,3]oxazin-4-yl)-4-fluoro-phenyl]-amide] | 43 nM
9 | NC1=N[C@](CF)(c2cc(NC(=O)c3cnc(Cl)cn3)ccc2F)[C@H]2CC(F)(F)C[C@H]2O1 [Example 27, 5-Chloro-pyrazine-2-carboxylic acid [(S)-3-((1R,2R)-2-amino-6,6-difluoro-4-fluoromethyl-4,4a,5,6,7,7a-hexahydro-cyclopenta[e][1,3]oxazin-4-yl)-4-fluoro-phenyl]-amide] | 660 nM
10 | NC1=N[C@](CF)(c2cc(NC(=O)c3cnc(OCC(F)(F)F)cn3)ccc2F)[C@H]2CC(F)(F)C[C@H]2O1 [Example 22, 5-(2,2,2-Trifluoro-ethoxy)-pyrazine-2-carboxylic acid [(S)-3-((1R,2R)-2-amino-6,6-difluoro-4-fluoromethyl-4,4a,5,6,7,7a-hexahydro-cyclopenta[e][1,3]oxazin-4-yl)-4-fluoro-phenyl]-amide] | 2.5 nM
11 | NC1=N[C@](CF)(c2cc(NC(=O)c3ccc(OC(F)F)cn3)ccc2F)[C@H]2CC(F)(F)C[C@H]2O1 [Example 13, 5-Difluoromethoxy-pyridine-2-carboxylic acid [(S)-3-((1R,2R)-2-amino-6,6-difluoro-4-fluoromethyl-4,4a,5,6,7,7a-hexahydro-cyclopenta[e][1,3]oxazin-4-yl)-4-fluoro-phenyl]-amide] | 3.5 nM
12 | N#Cc1cnc(C(=O)Nc2ccc(F)c([C@@]3(CF)N=C(N)O[C@@H]4CC(F)(F)C[C@@H]43)c2)c(Cl)c1 [Example 19, 3-Chloro-5-cyano-pyridine-2-carboxylic acid [(S)-3-((1R,2R)-2-amino-6,6-difluoro-4-fluoromethyl-4,4a,5,6,7,7a-hexahydro-cyclopenta[e][1,3]oxazin-4-yl)-4-fluoro-phenyl]-amide] | 5.5 nM
13 | COc1cnc(C(=O)Nc2ccc(F)c([C@@]3(CF)N=C(N)O[C@@H]4CC(F)(F)C[C@@H]43)c2)cn1 [Example 30, 5-Methoxy-pyrazine-2-carboxylic acid [(S)-3-((1R,2R)-2-amino-6,6-difluoro-4-fluoromethyl-4,4a,5,6,7,7a-hexahydro-cyclopenta[e][1,3]oxazin-4-yl)-4-fluoro-phenyl]-amide] | 7.6 nM
14 | NC1=N[C@](CF)(c2cc(NC(=O)c3cnc(OC(F)F)cn3)ccc2F)[C@H]2CC(F)(F)C[C@H]2O1 [Example 21, 5-Difluoromethoxy-pyrazine-2-carboxylic acid [(S)-3-((1R,2R)-2-amino-6,6-difluoro-4-fluoromethyl-4,4a,5,6,7,7a-hexahydro-cyclopenta[e][1,3]oxazin-4-yl)-4-fluoro-phenyl]-amide] | 0.9 nM
15 | NC1=N[C@@](c2cc(NC(=O)c3cnc(C(F)F)cn3)ccc2F)(C(F)F)[C@H]2CC(F)(F)C[C@H]2O1 [Example 40, 5-Difluoromethyl-pyrazine-2-carboxylic acid [(S)-3-((1R,2R)-2-amino-4-difluoromethyl-6,6-difluoro-4,4a,5,6,7,7a-hexahydro-cyclopenta[e][1,3]oxazin-4-yl)-4-fluoro-phenyl]-amide] | 44 nM
16 | N#Cc1ccc(C(=O)Nc2ccc(F)c([C@@]3(CF)N=C(N)O[C@]4(CF)CC(F)(F)C[C@@H]43)c2)nc1 [Example 46, 5-Cyano-pyridine-2-carboxylic acid [3-((1R,7aR)-2-(S)-amino-6,6-difluoro-4,7a-bis-fluoromethyl-4,4a,5,6,7,7a-hexahydro-cyclopenta[e][1,3]oxazin-4-yl)-4-fluoro-phenyl]-amide] | 27 nM
